Several values for one entry are separate records, joined by “and”; a condition that tells them apart may be missing. Identical values can stand only once. Entries after “also recorded” stand apart in the source; their conditions may differ.
B1: G-CSF: granulocyte colony-stimulating factor used with neutrophils to co-stimulate MDA-MB-231 cells; form not specified (protein, UniProt P09919 31-207, looked up)
Granulocyte …: TPLGPASSLPQSFLLKCLEQVRKIQGDGAALQEKLVSECATYKLCHPEELVLLGHSLGIPWAPLSSCPSQALQLAGCLSQLHSGLFLYQGLLQALEGISPELGPTLDTLQLDVADFATTIWQQMEELGMAPALQPTQGAMPAFASAFQRRAGGVLVASHLQSFLEVSYRVLRHLAQP
B2: PEG-G-CSF: pegfilgrastim, a PEGylated form of filgrastim (recombinant human G-CSF) (protein, UniProt P09919 31-207, looked up)
Granulocyte …: B1 Granulocyte …
modifications: PEG, N-terminal methionine

How the values were obtained:
[1] = tested on: 4T1 cell line; experiment: 4T1 tumor-bearing mouse model: tumor size and weight on Day 8; format: in vivo, BALB/c mice; conditions: for % weight Increase: % increase (+) or decrease (−) of tumor weight over body weight compared to control; for Tumor Weight Increase: change of average tumor weight compared to control; for Tumor Weight Average / % weight Average: group average; for Tumor Weight No. 1 / % weight No. 1: individual mouse No. 1; for Tumor Weight No. 1: 4T1 tumor-bearing BALB/c mice; for Tumor Weight No. 2 / % weight No. 2: individual mouse No. 2; for Tumor Weight No. 3 / % weight No. 3: individual mouse No. 3; for Tumor Weight No. 4 / % weight No. 4: individual mouse No. 4; for Tumor Weight No. 5 / % weight No. 5: individual mouse No. 5; for % weight Average / % weight No. 1 / % weight No. 2 / % weight No. 3 / % weight No. 4 / % weight No. 5: tumor weight over body weight
Description: On Day 2 and Day 3, the mice were administered 10 mg/kg of gemcitabine twice. On Day 4, 3 μg/mouse of PEG-G-CSF (Pegfilgrastim) was administrated via subcutaneous injection to the mice once. On every day of the study, 50 mg/kg of EC-18 diluted with PBS was administrated orally to the mice. A total of 24 tumor-bearing mice were classified into 5 groups consisting of control group (4 mice, Control), G-CSF administration group (5 mice, PEG-G-CSF), gemcitabine administration group (5 mice, Gemcitabine), G-CSF and gemcitabine co-administration group (5 mice, Gem+PEG), and EC-18 co-administration group (5 mice, Gem+PEG+EC-18), as summarized in Table 1 and FIG. 1A.
On Day 8, all mice were sacrificed and their tumors removed. The size and weight of the tumors were measured.

[2] = tested on: SMAD2/3; experiment: Confocal immunofluorescence of Smad nucleus translocation in MDA-MB-231; format: cell-based; conditions: TAN and G-CSF co-stimulation
Description: (§1) MDA-MB-231 and HL60 cells were obtained from the American Type Culture Collection (ATCC, Rockville, Md., USA). MDA-MB-231 cells were grown in DMEM medium (WELGENE, Seoul, Korea) containing 10% fetal bovine serum (HyClone, Waltham, Mass., USA), 1% antibiotics (100 mg/l streptomycin, 100 U/ml penicillin), and 0.4% 2-Mercaptoethanol (Sigma Aldrich, St. Louis, Mo., USA). HL60 cells were grown in DMEM medium containing 10% fetal bovine serum and 1% antibiotics (100 mg/l streptomycin, 100 U/ml penicillin). Cells were grown at 37° C. in a 5% CO2 atmosphere. To differentiate HL60 cells into neutrophil-like cells, cells were grown in medium with […] (Sigma Aldrich) for 5 days.
MDA-MB-231 cells were seeded in 12 well plate with cover glass, and incubated to 60% confluence at well. After the incubation, treated PLAG and neutrophil and G-CSF co-stimulation for indicate time. After treatment the indicated time at 37° C. in a 5% CO2 atmosphere, the cells were fixed with 3.7% formaldehyde for 20 min and permeabilized with 0.2% Triton X-100 for 20 min for staining. Cells were washed with PBST twice and reacted with specific antibody (SMAD2/3) for over-night at 4° C. Cells were washed with PBST twice and reacted secondary antibody. For nucleus detection, it stained with 1% Hoechst33342 for 20 min. Fluorescence was detected by confocal (Carl Zeiss, Thornwood, N.Y., USA).

[3] = tested on: IFN-γ; experiment: IFN-γ ELISA of cell supernatants; format: cell-based; conditions: for IFN-γ ELISA (450 nm OD): Samples 1-3; for secretion of IFN-γ: TAN environment, PLAG treatment, or G-CSF co-stimulation vs neutrophil only group
Description: as §1
(§2) The levels of cytokine secretion in the cell supernatants or plasma were analyzed using an enzyme-linked immunosorbent assay (ELISA) specifically for cytokines from BD Bioscience according to the manufacturer's protocol. The absorbance was measured at 450 nm using an EMax Endpoint ELISA microplate reader (Molecular Devices Corporation, Sunnyvale, Calif., USA).

[4] = tested on: TGF-β; experiment: TGF-β ELISA of cell supernatants; format: cell-based; conditions: for TGF-β ELISA (450 nm OD): Samples 1-3; for secretion level of TGF-β: TAN and G-CSF costimulation environment, with or without PLAG
Description: as §1, §2

[5] = tested on: Smad proteins; experiment: Smad protein activity by Western blotting in MDA-MB-231; format: cell-based; conditions: TAN and G-CSF co-stimulation
Description: as §1
(§3) MDA-MB-231 cells treated with PLAG and stimulated to induce neutrophil and G-CSF co-stimulation for various times at 37° C. in a 5% CO2 atmosphere were lysed using ice-cold IP lysis buffer (25 mM Tris-HCl pH 7.4, 150 mM NaCl, 1% NP-40, 1 mM EDTA, 5% glycerol). Extracted proteins were incubated with Surebeads Protein G specific antibody bound magnetic beads (Bio-Rad, Hercules, Calif., USA). Beads were washed with PBS with Tween 20 (PBST) and target proteins eluted in 1× sample buffer and analyzed by Western blotting.

[6] = tested on: MDA-MB-231 breast cancer cells; experiment: Transwell invasion assay (MTT readout); format: cell-based; conditions: for transwell invasion of the cancer cells: G-CSF and neutrophil co-stimulation group, with or without PLAG; for Invasive cell count (MTT assay, % transform): MDA-MB-231, Samples 1-3
Description: as §1
Quantitative macrophage chemoattraction assays were performed using a modified Boyden chamber (SPL lifescience, Seoul, Korea) with 8.0-μm pore polycarbonate membrane inserts with matrigel-coated in 24-well plates. The lower chamber was filled with apoptotic neutrophils for chemoattraction. The MDA-MB-231 cells (5×10^4 cells/ml) in serum-free medium were added into the upper chamber and treated with PLAG. The cells were allowed to chemoattraction (Neutrophil co-culture supernatant) for indicate times at 37° C. in a 5% CO2 atmosphere. The non-chemoattracted cells were removed from the upper surface of the membrane by scraping with a cotton swab, and the chemoattracted cells were calculate by MTT assay.

[7] = tested on: MDA-MB-231 breast cancer cells; experiment: Wound healing assay (mobility), TAN / G-CSF co-culture; format: cell-based; conditions: for mobility of the cancer cells: G-CSF and neutrophil co-stimulation group, with or without PLAG
Description: as §1
MDA-MB-231 were seeded in 12 well plate with cover glass, and incubated to 100% confluence at well. After the incubation, make the wound cell monolayer on center of well. A treated PLAG and neutrophil and G-CSF co-stimulation for indicate time. After treatment the indicated time and dose at 37° C. in a 5% CO2 atmosphere, the cells were fixed with 3.7% formaldehyde for 20 min and permeabilized with 0.2% Triton X-100 for 20 min and stained with 0.1% Phalloidin-FITC for 40 min. Fluorescence was detected by confocal (Carl Zeiss, Thornwood, N.Y., USA).

[8] = tested on: Vimentin; experiment: PCR of EMT marker expression in MDA-MB-231: Vimentin; format: cell-based; conditions: for Vimentin PCR band intensity (relative intensity): MDA-MB-231, Neutrophil co-culture, relative to None = 1, Samples 1-3; for expression level of Vimentin: neutrophil and G-CSF co-stimulation group, with or without PLAG
Description: as §1
(§4) Total RNA was extracted using RiboEx (GeneAll biotechnology, Seoul, Korea) according to the manufacturer's instructions, and cDNA was generated using ReverseAids cDNA synthesis kit (Thermo Scientific, Waltham, Mass., USA) according to the manufacturer's instructions. PCR was performed with the following temperature profile: a pre-denaturation step of 10 min at 95° C., followed by 35 cycles of 95° C. for 30 sec, annealing temperature for 30 sec and 72° C. for 30 sec and a final exposure to 72° C. for 10 min. Specific primer sequence for amplification was Table 5.

[9] = tested on: N-cadherin; experiment: PCR of EMT marker expression in MDA-MB-231: N-cadherin; format: cell-based; conditions: for N-cadherin PCR band intensity (relative intensity): MDA-MB-231, Neutrophil co-culture, relative to None = 1, Samples 1-3; for expression level of NCAD: neutrophil and G-CSF co-stimulation group, with or without PLAG
Description: as §1, §4

[10] = tested on: Snail; experiment: PCR of EMT marker expression in MDA-MB-231: Snail; format: cell-based; conditions: for Snail PCR band intensity (relative intensity): MDA-MB-231, Neutrophil co-culture, relative to None = 1, Samples 1-3; for expression level of SNAIL: neutrophil and G-CSF co-stimulation group, with or without PLAG
Description: as §1, §4

[11] = tested on: SMAD2/3-SMAD4 complex; experiment: Immunoprecipitation of Smad complex in MDA-MB-231; format: cell-based; conditions: TAN and G-CSF co-stimulation
Description: as §1, §3

Molecule	% weight Increase [1]	Tumor Weight Increase ([1]; Day 8)	Tumor Weight Average ([1]; Day 8) [×0.01 g]	Tumor Weight No. 1 ([1]; Day 8) [×0.01 g]	Tumor Weight No. 2 ([1]; Day 8) [×0.01 g]	Tumor Weight No. 3 ([1]; Day 8) [×0.01 g]	Tumor Weight No. 4 ([1]; Day 8) [×0.01 g]	Tumor Weight No. 5 ([1]; Day 8) [×0.01 g]	% weight Average ([1]; Day 8) [%]	% weight No. 1 ([1]; Day 8) [%]	% weight No. 2 ([1]; Day 8) [%]	% weight No. 3 ([1]; Day 8) [%]	% weight No. 4 ([1]; Day 8) [%]	% weight No. 5 ([1]; Day 8) [%]	IFN-γ ELISA (450 nm OD) ([3]; Neutrophil co-culture)	secretion of IFN-γ [3]	TGF-β ELISA (450 nm OD) ([4]; Neutrophil co-culture)	secretion level of TGF-β [4]	transwell invasion of the cancer cells [6]	Invasive cell count (MTT assay, % transform) ([6]; Neutrophil co-culture)	further results
Nc1ccn([C@@H]2O[C@H](CO)[C@@H](O)C2(F)F)c(=O)n1 [Gemcitabine, gemcitabine, reference compound]	−22.6%	−25.0%	24 ± 12	38	9	32	27	14	0.97 ± 0.51	1.55	0.36	1.32	1.08	0.54							tumor weight decreased compared to control ([1]; Day 8): about 25%
CCCCC/C=C\C/C=C\CCCCCCCC(=O)OC(COC(C)=O)COC(=O)CCCCCCCCCCCCCCC (stereo not shown) [PLAG, 1-palmitoyl-2-linoleoyl-3-acetylglycerol]															0.181 OD and 0.158 OD and 0.164 OD	significantly increased	0.484 OD and 0.476 OD and 0.474 OD	did not significantly decrease; also recorded: did not change	inhibited the cancer cell abnormal-metastasis	212.500% and 235.417% and 216.667%	nucleus translocation of SMAD2/3 and SMAD4 [2]: decreased; IFN-γ ELISA (450 nm OD) ([3]; without neutrophil): 0.144 OD and 0.149 OD and 0.156 OD; TGF-β ELISA (450 nm OD) ([4]; without neutrophil): 0.248 OD and 0.287 OD and 0.208 OD; SMAD activity (TGF-β signal pathway) [5]: decreased; Invasive cell count (MTT assay, % transform) ([6]; without neutrophil): 89.583% and 104.167% and 102.083%; transwell invasion of MDA-MB-231 cells ([6]; neutrophil-stimulated culture sup.): invasion of cancer cells is decreased; mobility of the cancer cells [7]: inhibited the cancer cell abnormal-metastasis; mobility of MDA-MB-231 cells ([7]; neutrophil-stimulated): mobility decreased; Vimentin PCR band intensity (relative intensity) [8]: 0.501 and 0.512 and 0.504; expression level of Vimentin [8]: expression was decreased; N-cadherin PCR band intensity (relative intensity) [9]: 0.723 and 0.747 and 0.732; expression level of NCAD [9]: expression was decreased; Snail PCR band intensity (relative intensity) [10]: 0.531 and 0.749 and 0.527; expression level of SNAIL [10]: expression was decreased; formation of the SMAD2/3-SMAD4 complex [11]: decreases
B1															0.139 OD and 0.102 OD and 0.094 OD	significantly lower	0.439 OD and 0.446 OD and 0.414 OD	increased	further increased	366.667% and 352.083% and 383.333%	mobility of the cancer cells [7]: further increased; Vimentin PCR band intensity (relative intensity) [8]: 1.832 and 1.854 and 1.867; expression level of Vimentin [8]: increased; N-cadherin PCR band intensity (relative intensity) [9]: 4.517 and 4.511 and 5.214; expression level of NCAD [9]: increased; Snail PCR band intensity (relative intensity) [10]: 2.4 and 2.781 and 1.635; expression level of SNAIL [10]: increased
B2	+22.7%	+19.4%	38 ± 11	47	30	53	30	31	1.54 ± 0.52	2.02	1.12	2.20	1.20	1.17							tumor weight increased compared to control ([1]; Day 8): about 19.4%

— US20220125882A1, “METHODS AND COMPOSITIONS FOR TREATMENT OF CANCER” (Enzychem Lifesciences Corporation, priority 2019, published 2022)
